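Briefly, cells in 96-well plates were exposed to five compound concentrations for 48 h, and endpoints were estimated by linear interpolation. TGI marks complete inhibition of growth.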
Columns and labels:
Assay in all cases: inhibition of tumour cell growth, NCI panel, 48 h
[1] = system: 786-0 renal
[2] = system: A498 renal
[3] = system: A549 NSCLC
[4] = system: ACHN renal
[5] = system: BT-549 breast
[6] = system: CAKI-1 renal
[7] = system: CCRF-CEM leukemia
[8] = system: COLO 205 colon
[9] = system: DU-145 prostate
[10] = system: EKVX NSCLC
[11] = system: HCC-2998 colon
[12] = system: HCT-116 colon
[13] = system: HCT-15 colon
[14] = system: HL-60(TB) leukemia
[15] = system: HOP-62 NSCLC
[16] = system: HS 578T breast
[17] = system: HT29 colon
[18] = system: IGROV1 ovarian
[19] = system: K-562 leukemia
[20] = system: KM12 colon
[21] = system: M14 melanoma
[22] = system: MALME-3M melanoma
[23] = system: MCF7 breast
[24] = system: MDA-MB-231 breast
[25] = system: MDA-MB-435
[26] = system: MDA-N
[27] = system: MOLT-4 leukemia
[28] = system: NCI-H226 lung
[29] = system: NCI-H23 lung
[30] = system: NCI-H522 lung
[31] = system: NCI/ADR-RES ovarian
[32] = system: OVCAR-3 ovarian
[33] = system: OVCAR-4 ovarian
[34] = system: OVCAR-5 ovarian
[35] = system: OVCAR-8 ovarian
[36] = system: PC-3 prostate
[37] = system: RPMI-8226 leukemia
[38] = system: RXF 393 renal
[39] = system: SF-268 CNS
[40] = system: SF-295 CNS
[41] = system: SK-MEL-2 melanoma
[42] = system: SK-MEL-28 melanoma
[43] = system: SK-MEL-5 melanoma
[44] = system: SK-OV-3 ovarian
[45] = system: SN12C renal
[46] = system: SNB-19 CNS
[47] = system: SNB-75 CNS
[48] = system: SR leukemia
[49] = system: SW-620 colon
[50] = system: T-47D breast
[51] = system: TK-10 renal
[52] = system: U251 CNS
[53] = system: UACC-257 melanoma
[54] = system: UACC-62 melanoma
[55] = system: UO-31 renal
[56] = system: HOP-92 NSCLC
[57] = system: LOX IMVI melanoma
[58] = system: NCI-H460 lung

**Q.** With Cc1ccc(C(=C2Sc3ccccc3S2)C(=C2Sc3ccccc3S2)c2ccc(C)s2)s1 as the molecule, how does the TGI [1] read?
**A.** The TGI was > 100 µM.

**Q.** And the TGI [2]?
**A.** The TGI was > 100 µM.

**Q.** And the TGI [3]?
**A.** Its TGI is > 100 µM.

**Q.** And the TGI [4]?
**A.** Its TGI is > 100 µM.

**Q.** What about the TGI [5] of the same molecule?
**A.** Its TGI is > 100 µM.

**Q.** What about the TGI [6] of the same molecule?
**A.** Its TGI is > 100 µM.

**Q.** And the TGI [7]?
**A.** The TGI was > 100 µM.

**Q.** And the TGI [8]?
**A.** Its TGI is > 100 µM.

**Q.** And the TGI [9]?
**A.** Its TGI is > 100 µM.

**Q.** And the TGI [10]?
**A.** The TGI was > 100 µM.

**Q.** And the TGI [11]?
**A.** Its TGI is > 100 µM.

**Q.** What about the TGI [12] of the same molecule?
**A.** The TGI was > 100 µM.

**Q.** And the TGI [13]?
**A.** Its TGI is > 100 µM.

**Q.** And the TGI [14]?
**A.** The TGI was > 100 µM.

**Q.** What about the TGI [15] of the same molecule?
**A.** Its TGI is > 100 µM.

**Q.** What about the TGI [16] of the same molecule?
**A.** Its TGI is > 100 µM.

**Q.** What about the TGI [17] of the same molecule?
**A.** The TGI was > 100 µM.

**Q.** And the TGI [18]?
**A.** The TGI was > 100 µM.

**Q.** And the TGI [19]?
**A.** The TGI was > 100 µM.

**Q.** And the TGI [20]?
**A.** The TGI was > 100 µM.

**Q.** And the TGI [21]?
**A.** Its TGI is > 100 µM.

**Q.** What about the TGI [22] of the same molecule?
**A.** The TGI was > 100 µM.

**Q.** And the TGI [23]?
**A.** The TGI was > 100 µM.

**Q.** What about the TGI [24] of the same molecule?
**A.** Its TGI is > 100 µM.

**Q.** And the TGI [25]?
**A.** The TGI was > 100 µM.

**Q.** And the TGI [26]?
**A.** The TGI was > 100 µM.

**Q.** What about the TGI [27] of the same molecule?
**A.** The TGI was > 100 µM.

**Q.** And the TGI [28]?
**A.** Its TGI is > 100 µM.

**Q.** What about the TGI [29] of the same molecule?
**A.** The TGI was > 100 µM.

**Q.** And the TGI [30]?
**A.** Its TGI is > 100 µM.

**Q.** What about the TGI [31] of the same molecule?
**A.** Its TGI is > 100 µM.

**Q.** What about the TGI [32] of the same molecule?
**A.** Its TGI is > 100 µM.

**Q.** What about the TGI [33] of the same molecule?
**A.** Its TGI is > 100 µM.

**Q.** And the TGI [34]?
**A.** Its TGI is > 100 µM.

**Q.** What about the TGI [35] of the same molecule?
**A.** Its TGI is > 100 µM.

**Q.** What about the TGI [36] of the same molecule?
**A.** Its TGI is > 100 µM.

**Q.** What about the TGI [37] of the same molecule?
**A.** Its TGI is > 100 µM.

**Q.** And the TGI [38]?
**A.** Its TGI is > 100 µM.

**Q.** What about the TGI [39] of the same molecule?
**A.** The TGI was > 100 µM.

**Q.** And the TGI [40]?
**A.** The TGI was > 100 µM.

**Q.** What about the TGI [41] of the same molecule?
**A.** Its TGI is > 100 µM.

**Q.** And the TGI [42]?
**A.** The TGI was > 100 µM.

**Q.** And the TGI [43]?
**A.** The TGI was > 100 µM.

**Q.** And the TGI [44]?
**A.** Its TGI is > 100 µM.

**Q.** And the TGI [45]?
**A.** Its TGI is > 100 µM.

**Q.** What about the TGI [46] of the same molecule?
**A.** The TGI was > 100 µM.

**Q.** And the TGI [47]?
**A.** The TGI was > 100 µM.

**Q.** And the TGI [48]?
**A.** Its TGI is 85.7 µM.

**Q.** What about the TGI [49] of the same molecule?
**A.** The TGI was > 100 µM.

**Q.** What about the TGI [50] of the same molecule?
**A.** Its TGI is > 100 µM.

**Q.** And the TGI [51]?
**A.** Its TGI is > 100 µM.

**Q.** And the TGI [52]?
**A.** Its TGI is > 100 µM.

**Q.** And the TGI [53]?
**A.** Its TGI is > 100 µM.

**Q.** And the TGI [54]?
**A.** The TGI was > 100 µM.

**Q.** What about the TGI [55] of the same molecule?
**A.** The TGI was > 100 µM.

**Q.** CC1OC(OC2C(OC(=O)[C@]34CCC(C)(C)C[C@H]3C3=CC[C@@H]5[C@@]6(C)CC[C@H](OC7OC(C(=O)O)C(O)C(O)C7O)C(C)(C)[C@@H]6CC[C@@]5(C)[C@]3(C)C[C@H]4O)OCC(O)C2O)C(O)C(OC2OCC(O)(CO)C2O)C1OC1OCC(O)C(O)C1O (some centres not stated) was tested. Which TGI [1] did it give?
**A.** The TGI was 24.7 µM.

**Q.** And the TGI [2]?
**A.** Its TGI is 3.47 µM.

**Q.** And the TGI [3]?
**A.** Its TGI is 14.8 µM.

**Q.** And the TGI [4]?
**A.** The TGI was 17.4 µM.

**Q.** And the TGI [5]?
**A.** Its TGI is 17.3 µM.

**Q.** What about the TGI [6] of the same molecule?
**A.** Its TGI is 20 µM.

**Q.** What about the TGI [7] of the same molecule?
**A.** Its TGI is 52.1 µM.

**Q.** And the TGI [8]?
**A.** Its TGI is 3.36 µM.

**Q.** What about the TGI [9] of the same molecule?
**A.** Its TGI is 25.8 µM.

**Q.** And the TGI [10]?
**A.** The TGI was 16.2 µM.

**Q.** What about the TGI [11] of the same molecule?
**A.** Its TGI is 3.32 µM.

**Q.** What about the TGI [12] of the same molecule?
**A.** The TGI was 19.8 µM.

**Q.** What about the TGI [13] of the same molecule?
**A.** Its TGI is 30 µM.

**Q.** And the TGI [14]?
**A.** The TGI was 11.4 µM.

**Q.** And the TGI [15]?
**A.** The TGI was 32.4 µM.

**Q.** What about the TGI [56] of the same molecule?
**A.** The TGI was 26.7 µM.

**Q.** What about the TGI [16] of the same molecule?
**A.** Its TGI is 40 µM.

**Q.** And the TGI [17]?
**A.** Its TGI is 12.1 µM.

**Q.** And the TGI [18]?
**A.** Its TGI is 33.3 µM.

**Q.** And the TGI [19]?
**A.** The TGI was 35.8 µM.

**Q.** What about the TGI [20] of the same molecule?
**A.** The TGI was 16.3 µM.

**Q.** And the TGI [57]?
**A.** Its TGI is 26.6 µM.

**Q.** And the TGI [21]?
**A.** Its TGI is 23.3 µM.

**Q.** And the TGI [22]?
**A.** The TGI was 24.7 µM.

**Q.** What about the TGI [23] of the same molecule?
**A.** The TGI was 18.3 µM.

**Q.** What about the TGI [24] of the same molecule?
**A.** Its TGI is 12.7 µM.

**Q.** And the TGI [25]?
**A.** Its TGI is 20.7 µM.

**Q.** And the TGI [26]?
**A.** The TGI was 16 µM.

**Q.** And the TGI [27]?
**A.** Its TGI is 38.8 µM.

**Q.** And the TGI [28]?
**A.** Its TGI is 28.3 µM.

**Q.** What about the TGI [29] of the same molecule?
**A.** The TGI was 7.18 µM.

**Q.** What about the TGI [58] of the same molecule?
**A.** Its TGI is 36.5 µM.

**Q.** And the TGI [30]?
**A.** The TGI was 16.5 µM.

**Q.** And the TGI [31]?
**A.** The TGI was 27.9 µM.

**Q.** And the TGI [32]?
**A.** Its TGI is 27.4 µM.

**Q.** And the TGI [33]?
**A.** The TGI was 22.7 µM.

**Q.** What about the TGI [34] of the same molecule?
**A.** Its TGI is 22.9 µM.

**Q.** And the TGI [35]?
**A.** Its TGI is 33.4 µM.

**Q.** And the TGI [36]?
**A.** Its TGI is 21.3 µM.

**Q.** What about the TGI [37] of the same molecule?
**A.** Its TGI is 26 µM.

**Q.** What about the TGI [38] of the same molecule?
**A.** Its TGI is 31.5 µM.

**Q.** And the TGI [39]?
**A.** Its TGI is 33.7 µM.

**Q.** And the TGI [40]?
**A.** The TGI was 26.9 µM.

**Q.** And the TGI [41]?
**A.** The TGI was 20 µM.

**Q.** And the TGI [42]?
**A.** The TGI was 15.2 µM.

**Q.** What about the TGI [43] of the same molecule?
**A.** Its TGI is 28.1 µM.

**Q.** And the TGI [44]?
**A.** The TGI was 29.3 µM.

**Q.** What about the TGI [45] of the same molecule?
**A.** The TGI was 11 µM.

**Q.** And the TGI [46]?
**A.** Its TGI is 23.8 µM.

**Q.** And the TGI [47]?
**A.** The TGI was 31.8 µM.

**Q.** And the TGI [48]?
**A.** Its TGI is 18.9 µM.

**Q.** And the TGI [49]?
**A.** The TGI was 23.2 µM.

**Q.** What about the TGI [50] of the same molecule?
**A.** Its TGI is 26.4 µM.

**Q.** And the TGI [52]?
**A.** Its TGI is 21.4 µM.

**Q.** And the TGI [53]?
**A.** Its TGI is 26.6 µM.

**Q.** And the TGI [54]?
**A.** The TGI was 31 µM.

**Q.** And the TGI [55]?
**A.** The TGI was 8.42 µM.

From PubChem BioAssay (NCI)
